Measurements from ChEMBL document CHEMBL3045910, “Novel molluscicide against Pomacea canaliculata based on quinoa (Chenopodium quinoa) saponins” (Crop Prot, 2008).
Calls of active or inactive are those of the source. The calls are words filed in the database; no cut-off is given here.

How the values were obtained:
[1] = Toxicity against Oreochromis sp. under laboratory conditions assessed as mortality at 54 ppm measured after 24 hr; assay type: organism-based; conditions: in vivo
[2] = Toxicity against Oreochromis sp. under laboratory conditions assessed as mortality at 40 ppm measured after 24 hr; assay type: organism-based; conditions: in vivo
[3] = tested on: Pomacea canaliculata; assay: Molluscicidal activity against Pomacea canaliculata under laboratory conditions assessed as mortality at 33 ppm after 24 hr; assay type: functional
[4] = tested on: Pomacea canaliculata; assay: Molluscicidal activity against Pomacea canaliculata under laboratory conditions assessed as mortality at 40 ppm after 24 hr; assay type: functional
[5] = tested on: Pomacea canaliculata; assay: Molluscicidal activity against Pomacea canaliculata under laboratory conditions assessed as mortality at 23 ppm after 24 hr; assay type: functional
[6] = tested on: Pomacea canaliculata; assay: Molluscicidal activity against Pomacea canaliculata under laboratory conditions assessed as mortality at 17 ppm after 24 hr; assay type: functional
[7] = Toxicity against Oreochromis sp. under laboratory conditions assessed as mortality at 33 ppm measured after 24 hr; assay type: organism-based; conditions: in vivo
[8] = Toxicity against Oreochromis sp. under laboratory conditions assessed as mortality at 23 ppm measured after 24 hr; assay type: organism-based; conditions: in vivo
[9] = Toxicity against Oreochromis sp. under laboratory conditions assessed as mortality at 10 ppm measured after 24 hr; assay type: organism-based; conditions: in vivo
[10] = Toxicity against Oreochromis sp. under laboratory conditions assessed as mortality at 17 ppm measured after 24 hr; assay type: organism-based; conditions: in vivo
[11] = Toxicity against Oreochromis sp. under laboratory conditions assessed as mortality at 5 ppm measured after 24 hr; assay type: organism-based; conditions: in vivo
[12] = Toxicity against Carassius auratus under laboratory conditions assessed as mortality at 54 ppm measured after 96 hr; assay type: organism-based; conditions: in vivo
[13] = Toxicity against Carassius auratus under laboratory conditions assessed as mortality at 33 ppm measured after 96 hr; assay type: organism-based; conditions: in vivo
[14] = Toxicity against Carassius auratus under laboratory conditions assessed as mortality at 40 ppm measured after 96 hr; assay type: organism-based; conditions: in vivo
[15] = Toxicity against Carassius auratus under laboratory conditions assessed as mortality at 23 ppm measured after 96 hr; assay type: organism-based; conditions: in vivo
[16] = Toxicity against Carassius auratus under laboratory conditions assessed as mortality at 17 ppm measured after 96 hr; assay type: organism-based; conditions: in vivo
[17] = Toxicity against Carassius auratus under laboratory conditions assessed as mortality at 10 ppm measured after 96 hr; assay type: organism-based; conditions: in vivo
[18] = Toxicity against Carassius auratus under laboratory conditions assessed as mortality at 54 ppm measured after 48 hr; assay type: organism-based; conditions: in vivo
[19] = Toxicity against Carassius auratus under laboratory conditions assessed as mortality at 5 ppm measured after 96 hr; assay type: organism-based; conditions: in vivo
[20] = Toxicity against Carassius auratus under laboratory conditions assessed as mortality at 40 ppm measured after 48 hr; assay type: organism-based; conditions: in vivo
[21] = Toxicity against Carassius auratus under laboratory conditions assessed as mortality at 33 ppm measured after 48 hr; assay type: organism-based; conditions: in vivo
[22] = Toxicity against Carassius auratus under laboratory conditions assessed as mortality at 23 ppm measured after 48 hr; assay type: organism-based; conditions: in vivo
[23] = Toxicity against Carassius auratus under laboratory conditions assessed as mortality at 17 ppm measured after 48 hr; assay type: organism-based; conditions: in vivo
[24] = Toxicity against Carassius auratus under laboratory conditions assessed as mortality at 5 ppm measured after 48 hr; assay type: organism-based; conditions: in vivo
[25] = Toxicity against Carassius auratus under laboratory conditions assessed as mortality at 10 ppm measured after 48 hr; assay type: organism-based; conditions: in vivo
[26] = Toxicity against Carassius auratus under laboratory conditions assessed as mortality at 54 ppm measured after 24 hr; assay type: organism-based; conditions: in vivo
[27] = Toxicity against Carassius auratus under laboratory conditions assessed as mortality at 40 ppm measured after 24 hr; assay type: organism-based; conditions: in vivo
[28] = Toxicity against Carassius auratus under laboratory conditions assessed as mortality at 33 ppm measured after 24 hr; assay type: organism-based; conditions: in vivo
[29] = Toxicity against Carassius auratus under laboratory conditions assessed as mortality at 17 ppm measured after 24 hr; assay type: organism-based; conditions: in vivo
[30] = Toxicity against Carassius auratus under laboratory conditions assessed as mortality at 23 ppm measured after 24 hr; assay type: organism-based; conditions: in vivo
[31] = Toxicity against Carassius auratus under laboratory conditions assessed as mortality at 10 ppm measured after 24 hr; assay type: organism-based; conditions: in vivo
[32] = Toxicity against Carassius auratus under laboratory conditions assessed as mortality at 5 ppm measured after 24 hr; assay type: organism-based; conditions: in vivo
[33] = tested on: Pomacea canaliculata; assay: Molluscicidal activity against Pomacea canaliculata under laboratory conditions assessed as mortality at 54 ppm after 24 hr; assay type: functional
[34] = tested on: Pomacea canaliculata; assay: Molluscicidal activity against Pomacea canaliculata under laboratory conditions assessed as mortality at 10 ppm after 24 hr; assay type: functional
[35] = tested on: Pomacea canaliculata; assay: Molluscicidal activity against Pomacea canaliculata under laboratory conditions assessed as mortality at 5 ppm after 24 hr; assay type: functional
[36] = tested on: Pomacea canaliculata; assay: Molluscicidal activity against Pomacea canaliculata infested rice field assessed as mortality at 19 to 27 ppm after 24 hr; assay type: functional, organism-based
[37] = Toxicity against Oreochromis sp. under laboratory conditions assessed as mortality at 54 ppm measured after 96 hr; assay type: organism-based; conditions: in vivo
[38] = Toxicity against Oreochromis sp. under laboratory conditions assessed as mortality at 40 ppm measured after 96 hr; assay type: organism-based; conditions: in vivo
[39] = Toxicity against Oreochromis sp. under laboratory conditions assessed as mortality at 33 ppm measured after 96 hr; assay type: organism-based; conditions: in vivo
[40] = Toxicity against Oreochromis sp. under laboratory conditions assessed as mortality at 23 ppm measured after 96 hr; assay type: organism-based; conditions: in vivo
[41] = Toxicity against Oreochromis sp. under laboratory conditions assessed as mortality at 10 ppm measured after 96 hr; assay type: organism-based; conditions: in vivo
[42] = Toxicity against Oreochromis sp. under laboratory conditions assessed as mortality at 17 ppm measured after 96 hr; assay type: organism-based; conditions: in vivo
[43] = Toxicity against Oreochromis sp. under laboratory conditions assessed as mortality at 5 ppm measured after 96 hr; assay type: organism-based; conditions: in vivo

Question: Which results are given for CC1(C)CC[C@]2(C(=O)O)CC[C@]3(C)C(=CC[C@@H]4[C@@]5(C)CC[C@H](O)C(C)(C)[C@@H]5CC[C@]43C)[C@@H]2C1 [OLEANOLIC_ACID]?
Answer: mortality at 24 h, 54 ppm [1]: 0%; mortality at 24 h, 40 ppm [2]: 0%; mortality at 33 ppm [3]: 100%; mortality at 40 ppm [4]: 100%; mortality at 23 ppm [5]: 75%; mortality at 17 ppm [6]: 75%; mortality at 24 h, 33 ppm [7]: 0%; mortality at 24 h, 23 ppm [8]: 0%; mortality at 24 h, 10 ppm [9]: 0%; mortality at 24 h, 17 ppm [10]: 0%; mortality at 24 h, 5 ppm [11]: 0%; mortality at 96 h, 54 ppm [12]: 0%; mortality at 96 h, 33 ppm [13]: 0%; mortality at 96 h, 40 ppm [14]: 0%; mortality at 96 h, 23 ppm [15]: 0%; mortality at 96 h, 17 ppm [16]: 0%; mortality at 96 h, 10 ppm [17]: 0%; mortality at 48 h, 54 ppm [18]: 0%; mortality at 96 h, 5 ppm [19]: 0%; mortality at 48 h, 40 ppm [20]: 0%; mortality at 48 h, 33 ppm [21]: 0%; mortality at 48 h, 23 ppm [22]: 0%; mortality at 48 h, 17 ppm [23]: 0%; mortality at 48 h, 5 ppm [24]: 0%; mortality at 48 h, 10 ppm [25]: 0%; mortality at 24 h, 54 ppm [26]: 0%; mortality at 24 h, 40 ppm [27]: 0%; mortality at 24 h, 33 ppm [28]: 0%; mortality at 24 h, 17 ppm [29]: 0%; mortality at 24 h, 23 ppm [30]: 0%; mortality at 24 h, 10 ppm [31]: 0%; mortality at 24 h, 5 ppm [32]: 0%; mortality at 54 ppm [33]: 100%; mortality at 10 ppm [34]: 50%; mortality at 5 ppm [35]: 0%; mortality [36]: Active; mortality at 96 h, 54 ppm [37]: 0%; mortality at 96 h, 40 ppm [38]: 0%; mortality at 96 h, 33 ppm [39]: 0%; mortality at 96 h, 23 ppm [40]: 0%; mortality at 96 h, 10 ppm [41]: 0%; mortality at 96 h, 17 ppm [42]: 0%; mortality at 96 h, 5 ppm [43]: 0%

Question: With CC1(C)CC[C@]2(C(=O)O)CC[C@]3(C)C(=CC[C@@H]4[C@@]5(C)CC[C@H](O)[C@@](C)(CO)[C@@H]5CC[C@]43C)[C@@H]2C1 [HEDERAGENIN] as the molecule, how does the mortality at 24 h, 54 ppm [1] read?
Answer: 0%

Question: And the mortality at 24 h, 40 ppm [2]?
Answer: 0%

Question: What about the mortality at 33 ppm [3] of the same molecule?
Answer: 100%

Question: What about the mortality at 40 ppm [4] of the same molecule?
Answer: 100%

Question: What about the mortality at 23 ppm [5] of the same molecule?
Answer: 75%

Question: And the mortality at 17 ppm [6]?
Answer: 75%

Question: And the mortality at 24 h, 33 ppm [7]?
Answer: 0%

Question: What about the mortality at 24 h, 23 ppm [8] of the same molecule?
Answer: 0%

Question: What about the mortality at 24 h, 10 ppm [9] of the same molecule?
Answer: 0%

Question: And the mortality at 24 h, 17 ppm [10]?
Answer: 0%

Question: What about the mortality at 24 h, 5 ppm [11] of the same molecule?
Answer: 0%

Question: And the mortality at 96 h, 54 ppm [12]?
Answer: 0%

Question: What about the mortality at 96 h, 33 ppm [13] of the same molecule?
Answer: 0%

Question: What about the mortality at 96 h, 40 ppm [14] of the same molecule?
Answer: 0%

Question: What about the mortality at 96 h, 23 ppm [15] of the same molecule?
Answer: 0%

Question: And the mortality at 96 h, 17 ppm [16]?
Answer: 0%

Question: And the mortality at 96 h, 10 ppm [17]?
Answer: 0%

Question: And the mortality at 48 h, 54 ppm [18]?
Answer: 0%

Question: What about the mortality at 96 h, 5 ppm [19] of the same molecule?
Answer: 0%

Question: And the mortality at 48 h, 40 ppm [20]?
Answer: 0%

Question: What about the mortality at 48 h, 33 ppm [21] of the same molecule?
Answer: 0%

Question: What about the mortality at 48 h, 23 ppm [22] of the same molecule?
Answer: 0%

Question: And the mortality at 48 h, 17 ppm [23]?
Answer: 0%

Question: What about the mortality at 48 h, 5 ppm [24] of the same molecule?
Answer: 0%

Question: What about the mortality at 48 h, 10 ppm [25] of the same molecule?
Answer: 0%

Question: What about the mortality at 24 h, 54 ppm [26] of the same molecule?
Answer: 0%

Question: What about the mortality at 24 h, 40 ppm [27] of the same molecule?
Answer: 0%

Question: And the mortality at 24 h, 33 ppm [28]?
Answer: 0%

Question: And the mortality at 24 h, 17 ppm [29]?
Answer: 0%

Question: What about the mortality at 24 h, 23 ppm [30] of the same molecule?
Answer: 0%

Question: And the mortality at 24 h, 10 ppm [31]?
Answer: 0%

Question: What about the mortality at 24 h, 5 ppm [32] of the same molecule?
Answer: 0%

Question: And the mortality at 54 ppm [33]?
Answer: 100%

Question: And the mortality at 10 ppm [34]?
Answer: 50%

Question: And the mortality at 5 ppm [35]?
Answer: 0%

Question: What about the mortality [36] of the same molecule?
Answer: Active

Question: And the mortality at 96 h, 54 ppm [37]?
Answer: 0%

Question: And the mortality at 96 h, 40 ppm [38]?
Answer: 0%

Question: What about the mortality at 96 h, 33 ppm [39] of the same molecule?
Answer: 0%

Question: What about the mortality at 96 h, 23 ppm [40] of the same molecule?
Answer: 0%

Question: And the mortality at 96 h, 10 ppm [41]?
Answer: 0%

Question: What about the mortality at 96 h, 17 ppm [42] of the same molecule?
Answer: 0%

Question: What about the mortality at 96 h, 5 ppm [43] of the same molecule?
Answer: 0%
